As a reminder, the melting point is the temperature of the solid-liquid transition.

`CC1(C)CC(=O)c2c(Cc3ccccc3)cn(-c3ccccn3)c2C1` [Example 19, 6,6-Dimethyl-3-phenylmethyl-1-(pyridin-2-yl)-4,5,6,7-tetrahydroindol-4-one] yielded a melting point of 111 to 113 °C.

With `CCc1cn(-c2nccs2)c2c1C(=O)CC(C)(C)C2` [Example 5, 6,6-Dimethyl-3-ethyl-1-(thiazol-2-yl)-4,5,6,7-tetrahydroindol-4-one], the melting point was 58 to 60 °C.

The molecule `CCc1cn(-c2ccccn2)c2c1C(=O)CC(C)(C)C2` [Example 1, 6,6-Dimethyl 3-Ethyl-1-(pyridin-2-yl)-4,5,6,7-tetrahydroindol-4-one] came in with a melting point of 125 to 127 °C.

`CCc1cn(-c2ncccn2)c2c1C(=O)CC(C)(C)C2` [Example 4, 3-Ethyl-6,6-dimethyl-1-(pyrimidin-2-yl)-4,5,6,7-tetrahydroindol-4-one]: the melting point was in the range of 111 to 114 °C.

In turn, `CC1(C)CC(=O)c2c(C(C)(C)C)cn(-c3ccccn3)c2C1` [Example 2, 6,6-Dimethyl-3-(1,1-dimethylethyl)-1-(pyridin-2-yl)-4,5,6,7-tetrahydroindol-4-one] returned a melting point of 143 to 145 °C.

In turn, `CC1(C)CC(=O)c2c(-c3nccs3)cn(-c3ccccn3)c2C1` [Example 15, 6,6-Dimethyl-1-(pyridin-2-yl)-3-(thiazol-2-yl)-4,5,6,7-tetrahydroindol-4-one] had a melting point of 166 to 168 °C.

Molecule `C=Cc1cn(-c2ccccn2)c2c1C(=O)CC(C)(C)C2` [Example 18, 6,6-Dimethyl-1-(pyridin-2-yl)-3-vinyl-4,5,6,7-tetrahydroindol-4-one] returned a melting point of 150 to 154 °C.

The molecule `CC1(C)CC(=O)c2c(Nc3ccccc3)cn(-c3ccccn3)c2C1` [Example 22, 6,6-Dimethyl-3-phenylamino-1-(pyridin-2-yl)-4,5,6,7-tetrahydroindol-4-one] displayed a melting point of 135 to 138 °C.

For the molecule `CC1(C)CC(=O)c2c(-c3ccccc3)cn(-c3ccccn3)c2C1` [Example 16, 6,6-Dimethyl-3-phenyl-1-(pyridin-2-yl)-4,5,6,7-tetrahydroindol-4-one], the melting point is 160 to 162 °C.

`CC1(C)CC(=O)c2c(Nc3ccccn3)cn(-c3ccccn3)c2C1` [Example 23, 6,6-Dimethyl-1-(pyridin-2-yl)-3-(pyridin-2-ylamino)-4,5,6,7-tetrahydroindol-4-one] had a melting point of 180 to 183 °C.

Turning to `CC1(C)CC(=O)c2c(-c3cncs3)cn(-c3ccccn3)c2C1` [Example 21, 6,6-Dimethyl-1-(pyridin-2-yl)-3-(thiazol-5-yl)-4,5,6,7-tetrahydroindol-4-one], the melting point lay within 167 to 169 °C.

`CC1(C)CC(=O)c2c(-c3ccccn3)cn(-c3ccccn3)c2C1` [Example 17, 6,6-Dimethyl-1-(pyridin-2-yl)-3-(pyridin-2-yl)-4,5,6,7-tetrahydroindol-4-one] registered a melting point of 171 to 174 °C.

Take `CC1(C)CC(=O)c2c(SCc3ccccc3)cn(-c3ccccn3)c2C1` [Example 14, 6,6-Dimethyl-3(phenylmethyl)thio-1-(pyridin-2-yl)-4,5,6,7-tetrahydroindol-4-one]: the melting point fell in the range of 190 to 192 °C.

These data come from patent publication US6395766B1, “Tetrahydroindolone derivatives as gabaaalpha5 ligands for enhancing cognition” (Merck Sharp & Dohme Limited, priority 1998, dated 2002).
